Structures are written as SMILES. pIC50: −log10 of the molar value.

For the assay, the target named is T1, Angiotensin II-receptor (Rattus norvegicus, UniProt P25095).
T1 construct: The tissue (rats lung) is homogenised in Tris-buffer; from tissue; host or cells: rat lung homogenate (washed 20,000×g pellet)
T1 sequence (P25095 1-359): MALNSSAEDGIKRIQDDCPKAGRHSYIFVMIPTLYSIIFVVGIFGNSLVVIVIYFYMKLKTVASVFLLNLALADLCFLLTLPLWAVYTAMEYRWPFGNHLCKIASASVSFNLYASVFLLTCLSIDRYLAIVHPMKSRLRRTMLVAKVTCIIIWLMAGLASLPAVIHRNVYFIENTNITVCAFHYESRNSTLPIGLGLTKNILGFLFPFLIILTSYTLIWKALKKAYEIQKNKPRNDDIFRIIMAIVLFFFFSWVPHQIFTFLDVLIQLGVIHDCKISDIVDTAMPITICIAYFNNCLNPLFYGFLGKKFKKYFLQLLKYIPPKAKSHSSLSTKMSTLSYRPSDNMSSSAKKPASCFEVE
The experiment in a line: Angiotensin II-receptor bonding. The note with it: rats lung homogenate; 50 pM [125I]-angiotensin II; 60 minutes at 37° C., pH 7.40. In kind it is binding. As for the experimental part: Description of method: Angiotensin II-receptor bonding
The tissue (rats lung) is homogenised in Tris-buffer (50 mMol Tris, 150 mMol NaCl, 5 mMol EDTA, pH 7.40) and centrifuged twice for 20 minutes at 20,000×g. The finished pellets are resuspended in incubating buffer (50 mMol Tris, 5 mMol MgCl2, 0.2% BSA, pH 7.40) 1:75, based on the moist weight of the tissue. Each 0.1 ml of homogenate is incubated for 60 minutes at 37° C. with 50 pM [^125 I]-angiotensin II (NEN, Dreieich, FRG) with increasing concentrations of the test substance in a total volume of 0.25 ml. Incubation is ended by rapid filtration through glass fiber filter mats. The filters are each washed with 4 ml of ice cold buffer (25 mMol Tris, 2.5 mMol MgCl2, 0.1% BSA, pH 7.40). The bound radioactivity is measured using a gamma-counter. The corresponding IC50 value is obtained from the dose-activity curve.

Take `CCc1nc2c(C)cc(C)nc2n1Cc1ccc2c(c1)nc(-c1ccccc1)n2CC(=O)O` [Substance A, 1-hydroxycarbonylmethyl-2-phenyl-5-[(2-ethyl-4,6-dimethyl-imidazo[4,5-b]pyridin-1-yl)-methyl]-benzimidazole-trihydrate]: the pIC50 is 6.92.

Turning to `CCCc1nc2c(C)cc(-c3nc4ccccc4n3C)cc2n1Cc1ccc2nc(-c3ccccc3)n(CC(=O)O)c2c1` [Substance B, 1-hydroxycarbonylmethyl-2-phenyl-6-[(2-n-propyl-4-methyl-6-(1-methyl-benzimidazol-2-yl)-benzimidazol-1-yl)-methyl]-benzimidazole], the pIC50 was 7.64.

For the compound `CCCc1nc2c(C)cc(-c3nc4ccccc4n3C)cc2n1Cc1ccc2c(c1)nc(-c1ccccc1)n2Cc1nnn[nH]1` [Substance C, 1-[(1H-tetrazol-5-yl)-methyl]-2-phenyl-5-[(2-n-propyl-4-methyl-6-(1-methyl-benzimidazol-2-yl)-benzimidazol-1-yl)-methyl]-benzimidazole], the pIC50 is 8.64.

Values taken from patent US5459147A, “Substituted benzimidazolyl derivatives and pharmaceutical compositions containing these compounds” (Dr. Karl Thomae GmbH, priority 1992, dated 1995).
